Experimental findings from US9403839B2, “Pyran-spirocyclic piperidine amides as modulators of ion channels” (Vertex Pharmaceuticals Incorporated, priority 2012, dated 2016) are described below.

For this experiment, the target named is human NaV subtype, like NaV 1.7 (Homo sapiens, UniProt Q15858). The experiment is described as follows: E-VIPR optical membrane potential assay with electrical stimulation. Format: cell-based. The settings on record: one or more sodium channels; assay and NaV subtype not specified for Table 3; read-out: IC50 Binned Activity Data. From the text: Assays for Detecting and Measuring NaV Inhibition Properties of Compound E-VIPR Optical Membrane Potential Assay Method with Electrical Stimulation
Sodium channels are voltage-dependent proteins that can be activated by inducing membrane voltage changes by applying electric fields. The electrical stimulation instrument and methods of use are described in Ion Channel Assay Methods PCT/US01/21652, herein incorporated by reference and are referred to as E-VIPR. The instrument comprises a microtiter plate handler, an optical system for exciting the coumarin dye while simultaneously recording the coumarin and oxonol emissions, a waveform generator, a current- or voltage-controlled amplifier, and a device for inserting electrodes in well. Under integrated computer control, this instrument passes user-programmed electrical stimulus protocols to cells within the wells of the microtiter plate.
24 hours before the assay on E-VIPR, HEK cells expressing human NaV subtype, like NaV 1.7, are seeded in 384-well poly-lysine coated plates at 15,000-20,000 cells per well. Other subtypes are performed in an analogous mode in a cell line expressing the NaV of interest. HEK cells are grown in media (exact composition is specific to each cell type and NaV subtype) supplemented with 10% FBS (Fetal Bovine Serum, qualified; GibcoBRL #16140-071) and 1% Pen-Strep (Penicillin-Streptomycin; GibcoBRL #15140-122). Cells are grown in vented cap flasks, in 90% humidity and 10% CO2, to 100% confluence. They are usually split by trypsinization 1:10 or 1:20, depending on scheduling needs, and grown for 2-3 days before the next split.
100 mg/mL Pluronic F-127 (Sigma #P2443), in dry DMSO
Compound Plates: 384-well round bottom plate, e.g. Corning 384-well Polypropylene Round Bottom #3656
Cell Plates: 384-well tissue culture treated plate, e.g. Greiner #781091-1B
Bath1 buffer. Glucose 10 mM (1.8 g/L), Magnesium Chloride (Anhydrous), 1 mM (0.095 g/L), Calcium Chloride, 2 mM (0.222 g/L), HEPES 10 mM (2.38 g/L), Potassium Chloride, 4.5 mM (0.335 g/L), Sodium Chloride 160 mM (9.35 g/L).
Hexyl Dye Solution: Bath1 Buffer+0.5% β-cyclodextrin (make this prior to use, Sigma #C4767), 8 μM CC2-DMPE+2.5 μM DiSBAC6(3). To make the solution Add volume of 10% Pluronic F127 stock equal to volumes of CC2-DMPE+DiSBAC6(3). The order of preparation is first mix Pluronic and CC2-DMPE, then add DiSBAC6(3) while vortexing, then add Bath1+β-Cyclodextrin.
1) Pre-spot compounds (in neat DMSO) into compound plates. Vehicle control (neat DMSO), the positive control (20 mM DMSO stock tetracaine, 125 μM final in assay) and test compounds are added to each well at 160× desired final concentration in neat DMSO. Final compound plate volume will be 80 μL (80-fold intermediate dilution from 1 μL DMSO spot; 160-fold final dilution after transfer to cell plate). Final DMSO concentration for all wells in assay is 0.625%.
2) Prepare Hexyl Dye Solution.
3) Prepare cell plates. On the day of the assay, medium is aspirated and cells are washed three times with 100 μL of Bath1 Solution, maintaining 25 μL residual volume in each well.
4) Dispense 25 μL per well of Hexyl Dye Solution into cell plates. Incubate for 20-35 minutes at room temp or ambient conditions.
5) Dispense 80 μL per well of Bath1 into compound plates. Acid Yellow-17 (1 mM) is added and Potassium Chloride can be altered from 4.5 to 20 mM depending on the NaV subtype and assay sensitivity.
6) Wash cell plates three times with 100 μL per well of Bath1, leaving 25 of residual volume. Then transfer 25 uL per well from Compound Plates to Cell Plates. Incubate for 20-35 minutes at room temp/ambient condition
7) Read Plate on E-VIPR. Use the current-controlled amplifier to deliver stimulation wave pulses for typically 9 seconds and a scan rate of 400 Hz. A pre-stimulus recording is performed for 0.5 seconds to obtain the un-stimulated intensities baseline. […]

The structures appear in SMILES notation.

Chain of human NaV subtype, like NaV 1.7 (Q15858 whole entry): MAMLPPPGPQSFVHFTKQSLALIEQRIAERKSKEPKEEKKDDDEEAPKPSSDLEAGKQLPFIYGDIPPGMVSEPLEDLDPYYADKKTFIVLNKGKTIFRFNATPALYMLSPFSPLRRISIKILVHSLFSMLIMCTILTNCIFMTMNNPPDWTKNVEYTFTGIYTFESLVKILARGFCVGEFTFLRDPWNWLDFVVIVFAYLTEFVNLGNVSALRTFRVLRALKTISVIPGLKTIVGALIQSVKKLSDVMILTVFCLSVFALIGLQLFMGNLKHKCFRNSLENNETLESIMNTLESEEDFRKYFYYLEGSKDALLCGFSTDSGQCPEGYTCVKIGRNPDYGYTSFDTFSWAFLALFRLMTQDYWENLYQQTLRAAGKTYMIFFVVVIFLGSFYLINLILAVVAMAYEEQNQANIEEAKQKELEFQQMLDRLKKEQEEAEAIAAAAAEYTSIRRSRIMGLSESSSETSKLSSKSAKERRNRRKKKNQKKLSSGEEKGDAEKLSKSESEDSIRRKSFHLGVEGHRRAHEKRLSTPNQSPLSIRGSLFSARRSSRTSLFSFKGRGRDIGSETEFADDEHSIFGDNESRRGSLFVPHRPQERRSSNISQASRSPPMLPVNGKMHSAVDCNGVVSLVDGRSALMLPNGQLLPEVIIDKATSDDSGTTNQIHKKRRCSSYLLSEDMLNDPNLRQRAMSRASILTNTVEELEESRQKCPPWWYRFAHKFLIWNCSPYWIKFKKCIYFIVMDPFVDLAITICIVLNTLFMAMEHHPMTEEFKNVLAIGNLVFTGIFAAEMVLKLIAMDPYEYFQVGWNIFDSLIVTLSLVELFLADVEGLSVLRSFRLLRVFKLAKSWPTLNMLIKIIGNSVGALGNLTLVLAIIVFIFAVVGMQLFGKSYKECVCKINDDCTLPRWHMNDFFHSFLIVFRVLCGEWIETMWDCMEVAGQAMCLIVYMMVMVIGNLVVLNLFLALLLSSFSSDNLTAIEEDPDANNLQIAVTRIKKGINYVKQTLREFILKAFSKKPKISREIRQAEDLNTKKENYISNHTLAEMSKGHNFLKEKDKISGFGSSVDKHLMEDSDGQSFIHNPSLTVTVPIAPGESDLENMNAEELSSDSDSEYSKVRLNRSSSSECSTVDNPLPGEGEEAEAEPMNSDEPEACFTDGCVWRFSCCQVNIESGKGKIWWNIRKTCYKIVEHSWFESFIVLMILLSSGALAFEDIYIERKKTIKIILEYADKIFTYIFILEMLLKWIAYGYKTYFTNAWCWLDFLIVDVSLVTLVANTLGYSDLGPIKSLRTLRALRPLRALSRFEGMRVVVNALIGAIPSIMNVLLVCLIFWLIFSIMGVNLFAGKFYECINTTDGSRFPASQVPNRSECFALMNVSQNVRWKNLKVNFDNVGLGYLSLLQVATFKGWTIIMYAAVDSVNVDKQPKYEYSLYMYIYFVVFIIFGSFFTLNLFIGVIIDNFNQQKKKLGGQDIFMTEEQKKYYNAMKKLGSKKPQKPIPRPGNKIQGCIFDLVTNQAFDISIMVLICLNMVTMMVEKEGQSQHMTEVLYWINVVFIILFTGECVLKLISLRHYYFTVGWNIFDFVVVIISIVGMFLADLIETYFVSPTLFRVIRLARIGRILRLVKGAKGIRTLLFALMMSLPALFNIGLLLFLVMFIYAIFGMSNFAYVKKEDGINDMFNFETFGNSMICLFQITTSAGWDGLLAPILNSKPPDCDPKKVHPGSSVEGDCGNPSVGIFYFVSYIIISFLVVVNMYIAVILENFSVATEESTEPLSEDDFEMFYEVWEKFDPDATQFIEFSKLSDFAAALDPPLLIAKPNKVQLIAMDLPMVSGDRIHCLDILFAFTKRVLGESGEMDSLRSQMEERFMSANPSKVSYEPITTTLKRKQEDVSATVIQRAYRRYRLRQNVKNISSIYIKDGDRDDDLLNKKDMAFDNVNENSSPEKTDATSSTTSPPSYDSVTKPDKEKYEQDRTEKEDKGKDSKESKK

With `CCCOC1CC(c2cncs2)OC2(CCN(C(=O)c3ccc(OC(C)C)c(C)c3)CC2)C1` (stereo not drawn) [Compound 8], the IC50 was not above 2000 nM.
Next, `CCOC1CC(c2cncs2)OC2(CCN(C(=O)c3ccc(OC(C)C)c(C)c3)CC2)C1` (stereo not drawn) [Compound 18]: not above 2000 nM.
Next, `CCOC1CC(c2ccccc2)OC2(CCN(C(=O)c3ccc(F)c(F)c3OC)CC2)C1` (stereo not drawn) [Compound 19]: not above 2000 nM; `CCOC1CC(c2ccccc2)OC2(CCN(C(=O)c3cc(C)c(OC(C)C)c(C)c3)CC2)C1` (stereo not drawn) [Compound 29]: not above 2000 nM; `CCOC1CC(c2cccnc2)OC2(CCN(C(=O)c3ccc(C(C)(C)C)c(OC)c3)CC2)C1` (stereo not drawn) [Compound 37]: not above 2000 nM.
With `CCOC1CC(c2cccnc2)OC2(CCN(C(=O)c3ccc(OC(C)C)c(C)n3)CC2)C1` (stereo not drawn) [Compound 38], the IC50 was 2000 to 5000 nM.
Under `CCOC1CC(c2cccnc2)OC2(CCN(C(=O)c3ccc(OCCC(C)C)c(OC)c3)CC2)C1` (stereo not drawn) [Compound 39] stands not above 2000 nM.
Under `CCOC1CC(c2ccccc2)OC2(CCN(C(=O)c3ccc(COCC(F)(F)F)cc3)CC2)C1` (stereo not drawn) [Compound 46] stands not above 2000 nM.
Next, `CCOC1CC(c2ccccc2)OC2(CCN(C(=O)c3ccc(C#N)c(C)n3)CC2)C1` (stereo not drawn) [Compound 50]: more than 5000 nM.
Regarding `CCOC1CC(c2ccccc2)OC2(CCN(C(=O)c3cc(-c4ccc(C)cc4)on3)CC2)C1` (stereo not drawn) [Compound 53], the half-inhibitory concentration (IC50) was in the range of 2000 to 5000 nM.
Next, `CCOC1CC(c2ccccc2)OC2(CCN(C(=O)c3ccc(OC)c(OC(F)F)c3)CC2)C1` (stereo not drawn) [Compound 62]: not above 2000 nM; `CCOC1CC(c2ccccc2)OC2(CCN(C(=O)c3cccnc3N3CCCCC3)CC2)C1` (stereo not drawn) [Compound 64]: not above 2000 nM.
Consider `CCOc1ncc(Cl)cc1C(=O)N1CCC2(CC1)CC(OCC)CC(c1ccccc1)O2` (stereo not drawn) [Compound 68], for which the IC50 is 2000 to 5000 nM.
In the case of `CCOC1CC(c2ccccc2)OC2(CCN(C(=O)c3ccc(N4CCCC4)nc3)CC2)C1` (stereo not drawn) [Compound 70], the IC50 lay within 2000 to 5000 nM.
Next, `CCOC1CC(c2ccccc2)OC2(CCN(C(=O)c3cccnc3NC(C)C)CC2)C1` (stereo not drawn) [Compound 75]: not above 2000 nM; `CCOC1CC(c2ccccc2)OC2(CCN(C(=O)c3c[nH]c4ncccc34)CC2)C1` (stereo not drawn) [Compound 89]: not above 2000 nM; `CCOC1CC(c2ccccc2)OC2(CCN(C(=O)c3ccc(N4CCOCC4)cc3)CC2)C1` (stereo not drawn) [Compound 93]: not above 2000 nM.
As to `CCOC1CC(c2ccccc2)OC2(CCN(C(=O)c3cnc4ccccc4c3)CC2)C1` (stereo not drawn) [Compound 95], the IC50 is more than 5000 nM.
`CCOC1CC(c2ccccc2)OC2(CCN(C(=O)c3ccc(C)cc3F)CC2)C1` (stereo not drawn) [Compound 97]: the IC50 is not above 2000 nM.
Take `CCOC1CC(c2ccccc2)OC2(CCN(C(=O)c3cccc(C)n3)CC2)C1` (stereo not drawn) [Compound 122]: the IC50 was more than 5000 nM.
Next, `CCOC1CC(c2ccccc2)OC2(CCN(C(=O)c3ccc(OC(C)C)c(C#N)c3)CC2)C1` (stereo not drawn) [Compound 127]: not above 2000 nM; `CCOC1CC(c2ccccc2)OC2(CCN(C(=O)c3ccc(OC(F)F)c(OC)c3)CC2)C1` (stereo not drawn) [Compound 135]: not above 2000 nM; `CCOC1CC(c2ccccc2)OC2(CCN(C(=O)c3ccc(OC(C)(C)C)c(OC)c3)CC2)C1` (stereo not drawn) [Compound 137]: not above 2000 nM.
Next, `CCOC1CC(c2ccccc2)OC2(CCN(C(=O)c3ccc(O[C@@H](C)CC)c(OC)c3)CC2)C1` (stereo partly drawn) [Compound 139]: not above 2000 nM; `CCOC1CC(c2ccccc2)OC2(CCN(C(=O)c3ccc(OC(C)C)c(Cl)c3)CC2)C1` (stereo not drawn) [Compound 171]: not above 2000 nM.
Under `CCOC1CC(c2ccccc2)OC2(CCN(C(=O)c3ccc(C4(O)CCC4)cc3)CC2)C1` (stereo not drawn) [Compound 176] stands not above 2000 nM; under `CCOC1CC(CC)OC2(CCN(C(=O)c3ccc(OC(C)C)c(C)c3)CC2)C1` (stereo not drawn) [Compound 194], 2000 to 5000 nM.

Usually IC50 stands for the concentration needed to halve the response being measured.
